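96-well plates; 48 h exposure; 5 concentrations. Endpoints by linear interpolation between flanking doses. Not reached: highest tested concentration assigned. Here, GI50 denotes the concentration required for 50% inhibition of growth.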 The source made the active and inactive calls. Cut-off read from the data, not from the text of the source: active = GI50 up to about 1.1 µM and inactive = higher. Bounds are passed on as bounds.

Among the test systems are HCT-116; HCT-15; 786-0; Malme-3M; UACC-62; U-251; MDA-MB-231; HT-29; HOP-92; MCF7; Hs-578T; MDA-N; SK-MEL-2; RPMI-8226; K562; HL-60; OVCAR-4; OVCAR-3.
Common to all, as to experiment: NCI-60 cell line screen, 48 h

Consider `Nc1nc(Cl)c(N)c(NCC2(CO)CCCC2)n1`, for which the GI50 with HCT-116 was > 100 µM (inactive); in the assay on HCT-15, greater than 100 µM; in the assay on 786-0, > 100 µM (inactive); in the assay on Malme-3M it was > 100 µM (inactive); in the assay on UACC-62, 1.83 µM (inactive); in the assay with U-251 it was > 100 µM (inactive). In addition, the GI50 in the assay with MDA-MB-231 is > 100 µM (inactive); with HT-29 it was > 100 µM (inactive); in the assay with HOP-92 it was > 100 µM (inactive); in the assay with MCF7 it was 90.6 µM (inactive); in the assay with Hs-578T, > 100 µM (inactive); in the assay on MDA-N it was > 100 µM (inactive). For the same compound, the GI50 was > 100 µM (inactive) in the assay with SK-MEL-2; > 100 µM (inactive) in the assay on RPMI-8226; 77.1 µM (inactive) with K562; > 100 µM (inactive) in the assay with HL-60; > 100 µM (inactive) with OVCAR-4; 62.1 µM (inactive) in the assay with OVCAR-3.

On to `O=C1CC2(CCNCC2)C(=O)N1N1CCOCC1`, for which the GI50 was > 100 µM (inactive) in the assay on HCT-116; greater than 100 µM in the assay on HCT-15; > 100 µM (inactive) in the assay with 786-0; > 100 µM (inactive) with Malme-3M; > 100 µM (inactive) in the assay on UACC-62; > 100 µM (inactive) in the assay on U-251. Moreover, the GI50 in the assay with MDA-MB-231, in the assay with HT-29, with HOP-92, with MCF7, in the assay on Hs-578T and in the assay with MDA-N was > 100 µM (inactive) in each case. Further, the GI50 with SK-MEL-2, in the assay on RPMI-8226, in the assay on K562, in the assay with HL-60, in the assay with OVCAR-4 and in the assay on OVCAR-3 was > 100 µM (inactive) in each case.

With `Cc1ccc(S(=O)(=O)NN=C2C(C)(C)CC2(C)C)cc1`, the GI50 in the assay with HCT-116 is > 100 µM (inactive); in the assay on HCT-15, greater than 100 µM; with 786-0, > 100 µM (inactive); in the assay with Malme-3M, > 100 µM (inactive); in the assay on UACC-62, > 100 µM (inactive); in the assay with U-251, > 100 µM (inactive). Besides, the GI50 in the assay with MDA-MB-231, in the assay with HT-29, in the assay with HOP-92, in the assay with MCF7, in the assay on Hs-578T and in the assay with MDA-N was > 100 µM (inactive) throughout. Moreover, the GI50 was > 100 µM (inactive) in the assay on SK-MEL-2; 76.2 µM (inactive) in the assay with K562; > 100 µM (inactive) with HL-60; > 100 µM (inactive) in the assay with OVCAR-4; > 100 µM (inactive) in the assay on OVCAR-3.

`CCOC(=O)Nn1c(CC#N)nnc1Cc1ccccc1`: the GI50 was > 100 µM (inactive) in the assay on HCT-116; greater than 100 µM in the assay on HCT-15; > 100 µM (inactive) in the assay with 786-0; > 100 µM (inactive) with Malme-3M; > 100 µM (inactive) in the assay with UACC-62; > 100 µM (inactive) in the assay with U-251. For the same compound, the GI50 in the assay on MDA-MB-231, with HT-29, in the assay with HOP-92, in the assay on MCF7, in the assay on Hs-578T and in the assay with MDA-N was > 100 µM (inactive) in each case. Further, the GI50 in the assay on SK-MEL-2, with RPMI-8226, in the assay on K562, in the assay with HL-60 and in the assay on OVCAR-3 was > 100 µM (inactive) throughout.

Turning to `CC(Oc1ccccc1Cl)C(=O)NN1C(=O)CSC1c1ccccc1` (stereo not drawn), the GI50 in the assay with HCT-116 is 34.9 µM (inactive); in the assay on HCT-15, greater than 100 µM; in the assay with 786-0 it was 74.5 µM (inactive); with UACC-62, > 100 µM (inactive); in the assay with U-251 it was > 100 µM (inactive); with MDA-MB-231, > 100 µM (inactive). For the same compound, the GI50 in the assay with HT-29 is > 100 µM (inactive); in the assay on HOP-92, 57.3 µM (inactive); in the assay with MCF7, 92.3 µM (inactive); in the assay on Hs-578T, > 100 µM (inactive); in the assay on MDA-N, 57.8 µM (inactive); in the assay on SK-MEL-2 it was > 100 µM (inactive). Besides, the GI50 with RPMI-8226 is 83 µM (inactive); in the assay with K562 it was 32.7 µM (inactive); with HL-60 it was 28.2 µM (inactive); in the assay with OVCAR-4, > 100 µM (inactive); with OVCAR-3 it was > 100 µM (inactive).

Turning to `C=C1[C@H](OC(=O)C(C)C)[C@]23CC4(O)[C@@H]5[C@@]6(C)CCC[C@]57C([C@@H]2C[C@@]1(O)[C@H](O)[C@@H]73)N4C6`, the GI50 in the assay with HCT-116 was > 100 µM (inactive); in the assay with HCT-15 it was greater than 100 µM; with 786-0, > 100 µM (inactive); with Malme-3M it was > 100 µM (inactive); in the assay with UACC-62 it was > 100 µM (inactive); with U-251, > 100 µM (inactive). Moreover, the GI50 with MDA-MB-231, in the assay with HT-29, with HOP-92, with MCF7, with Hs-578T and with MDA-N was > 100 µM (inactive) in each case. For the same compound, the GI50 with SK-MEL-2, in the assay with RPMI-8226, in the assay on HL-60, in the assay on OVCAR-4 and in the assay with OVCAR-3 was > 100 µM (inactive) each time.

As to `CN(C)Cc1cc(/N=N/c2ccccc2Cl)cc(CN(C)C)c1O`, the GI50 in the assay with HCT-116 is 53 µM (inactive); with HCT-15 it was greater than 100 µM; in the assay on 786-0, 76.9 µM (inactive); in the assay on Malme-3M, > 10 µM (inactive); with UACC-62, 26.2 µM (inactive); in the assay with U-251 it was 84.3 µM (inactive). Moreover, the GI50 was 98.4 µM (inactive) in the assay with MDA-MB-231; 42.9 µM (inactive) in the assay with HT-29; 21.5 µM (inactive) with HOP-92; > 100 µM (inactive) in the assay on MCF7; 28.1 µM (inactive) in the assay with Hs-578T; 29.2 µM (inactive) with MDA-N. In addition, the GI50 was > 100 µM (inactive) in the assay with RPMI-8226; 37.5 µM (inactive) in the assay on K562; 20.8 µM (inactive) with HL-60; 60.1 µM (inactive) with OVCAR-4; 21.4 µM (inactive) in the assay on OVCAR-3.

On to `CC(=O)NNc1nc(C)c(C(/C=C/c2ccc([N+](=O)[O-])cc2)=N/NC(N)=S)s1`, for which the GI50 with HCT-116 is > 100 µM (inactive); with HCT-15, greater than 100 µM; in the assay on 786-0 it was > 100 µM (inactive); with Malme-3M, > 100 µM (inactive); with UACC-62, > 100 µM (inactive); in the assay with U-251 it was > 100 µM (inactive). In addition, the GI50 in the assay with MDA-MB-231, with HT-29, with HOP-92, in the assay with MCF7, in the assay on Hs-578T and with MDA-N was > 100 µM (inactive) in each case. In addition, the GI50 in the assay on SK-MEL-2, in the assay with RPMI-8226, with HL-60, in the assay on OVCAR-4 and in the assay with OVCAR-3 was > 100 µM (inactive) each time.

Turning to `CC(=O)NC1C(OCc2ccccc2)OC(CO)C(O)C1OC(C)C(=O)NC(C(=O)N[C@@H](CCC(=O)NCCNCCNc1c2ccccc2nc2cccc([N+](=O)[O-])c12)C(N)=O)C(C)C` (stereo partly drawn), the GI50 in the assay with HCT-116 was 19.9 µM (inactive); in the assay on HCT-15 it was 24.7 µM; with 786-0, 22.4 µM (inactive); in the assay with Malme-3M it was 36.2 µM (inactive); in the assay on U-251, 65.8 µM (inactive); with MDA-MB-231 it was 70.6 µM (inactive). Further, the GI50 in the assay on HOP-92 was 18.2 µM (inactive); in the assay on MCF7, 6.7 µM (inactive); in the assay with Hs-578T it was > 100 µM (inactive); in the assay with MDA-N, 20.1 µM (inactive); in the assay on SK-MEL-2, 20 µM (inactive); with RPMI-8226, 17.9 µM (inactive). In addition, the GI50 in the assay with K562 was 0.0158 µM (active); in the assay on HL-60, 10.1 µM (inactive); in the assay with OVCAR-4 it was 29.2 µM (inactive); with OVCAR-3, 25.8 µM (inactive).

`O=c1oc2ccc([N+](=O)[O-])cc2cc1-c1csc(-c2ccccc2)n1`: the GI50 was > 100 µM (inactive) with HCT-116; greater than 100 µM in the assay on HCT-15; > 100 µM (inactive) in the assay on 786-0; 32.6 µM (inactive) with Malme-3M; > 100 µM (inactive) with UACC-62; > 100 µM (inactive) in the assay on U-251. Further, the GI50 in the assay on MDA-MB-231, in the assay with HT-29, in the assay on HOP-92, in the assay on MCF7, with Hs-578T and in the assay with MDA-N was > 100 µM (inactive) each time. The GI50 in the assay on SK-MEL-2, with RPMI-8226, in the assay on K562, in the assay on HL-60 and in the assay with OVCAR-4 was > 100 µM (inactive) each time.

As for `C/C=C/[C@H]1O[C@@](OC)([C@@H](C)[C@H](O)[C@H](C)[C@H]2OC(=O)/C(OC)=C/C(C)=C/[C@@H](C)[C@@H](O)[C@@H](C)[C@@H](O)[C@H](C)C/C(C)=C/C=C/[C@@H]2OC)CC(OC2CC(O)C(OC(N)=O)C(C)O2)[C@@H]1C` (stereo partly drawn), the GI50 in the assay on HCT-116 was < 0.01 µM (active); in the assay on HCT-15 it was less than 0.01 µM; with 786-0, < 0.01 µM (active); with Malme-3M it was < 0.01 µM (active); in the assay with UACC-62, < 0.01 µM (active); with U-251, < 0.01 µM (active). Also, the GI50 in the assay on MDA-MB-231 was < 0.01 µM (active); in the assay with HT-29, < 0.01 µM (active); in the assay with HOP-92, 0.103 µM (active); with MCF7 it was < 0.01 µM (active); in the assay with Hs-578T, 2.08 µM (inactive); in the assay on MDA-N, < 0.01 µM (active). The GI50 in the assay with SK-MEL-2, in the assay on RPMI-8226, with K562, in the assay with HL-60 and in the assay with OVCAR-3 was < 0.01 µM (active) throughout.
